Values joined by “and” are separate entries in the source; they are usually repeats but may differ in a detail not shown here. Equal entries are not always repeated.
Assays:
pancreatic elastase = pancreatic elastase (Homo sapiens, UniProt Q9UNI1); assay: Inhibition of pancreatic elastase by UAMC-00050 (IC50); type: biochemical; details: in vitro
Method: Here, the potency of UAMC-00050 to inhibit two other serine proteases, chymotrypsin and pancreatic elastase, with specificity was determined.

[1] = Pharmacokinetics after intravenous administration (plasma, LC-MS/MS, PKSolver two-compartment model); type: in vivo, Sprague–Dawley rats; details: rat, i.v. 1 mg/kg
Method: To evaluate the pharmacokinetic properties of UAMC-00050, it was administered in male Sprague–Dawley rats (200–225 g) either colonically (5 mg/kg, in a volume of 200 µL 5% DMSO solution) or intravenously (1 mg/kg in a volume of 200 µL 5% DMSO solution). Plasma samples were collected after 5, 15, 30, 45, 60, 90, 120, and 180 min via the tail vein and stored at −80 °C until analysis.
Sample preparation and analysis of plasma samples consisted of protein precipitation followed by direct injection in a liquid chromatography–tandem mass spectrometry (LC-MS/MS) instrument. Briefly, 100 µL of plasma was spiked with 20 µL of nordazepam-D5 used as internal standard for quantification (yielding in a final concentration of 485 ng/mL) and afterwards 180 µL of acetonitrile was added to precipitate proteins. Subsequently, the samples were vortexed for 2.5 min at 2000× g and centrifuged for 5 min at 10,000× g. In a next step, 100 µL of the supernatant was transferred to a 0.20 µm centrifugal filter to remove remaining particles. After centrifugation for 5 min at 10,000× g, the remaining filtrate was transferred to an autosampler vial ready to be analyzed with LC-MS/MS. A seven-level point calibration curve with final concentrations ranging between 5 and 1000 ng/mL and a curve weighting factor of 1/x^2 was prepared in blank mouse plasma using different working solution standards of UAMC-00050 and a fixed amount of internal standard. The lower limit of quantification of the method was 5 ng/mL.
A gradient was applied as follows: 0–0.5 min: 5% B; 0.5–10 min 5–100% B; 10–12 min 100% B; and 12–12.1 min 5% B. The total run time was 18 min and the injection volume was set to 5 µL. Detection and quantification of UAMC-00050 were performed with an Agilent 6410 triple quadrupole MS system with an electrospray interface (ESI) operating in positive ionization mode. The following source parameters were applied: gas temperature 350 °C, gas flow 10 L/min, nebulizer 35 psi, and capillary voltage 4000 V. Compound-dependent MS parameters are summarized in Table 1. The most abundant transition of UAMC-00050 was used as quantifier and the other transitions were used for confirmation (qualifiers). For compound confirmation, the following criteria were used: the quantifier/qualifier ratio should fall within ±15% of the ratio observed in calibrators and the relative retention time should fall within 2.5% of the values observed in the calibrators.
All data are presented as mean ± SEM or as median (IQR). Pharmacokinetic analysis and modeling of the plasma concentration–time data was performed using PKSolver. Other statistical analysis and data visualization processes were performed using R software (version 4.0.3) and GraphPad Prism (version 7.04). The nominal significance level was 0.05 for all tests. The development of body weight, VMR results, and colonic compliance were assessed with generalized estimating equations (GEE) using an unstructured working correlation matrix, followed by Fisher’s least significant difference (LSD) post hoc test on prespecified pairwise comparisons of interest. Inflammatory parameters were analyzed using two-way analysis of variance (ANOVA), followed by Student–Newman–Keuls (SNK) post hoc testing when applicable. To evaluate the differences in proteolytic activities between control, post-colitis, treated, and untreated rats, a two-way ANOVA was conducted. Main effects were tested on split files with a Mann–Whitney U test with Bonferroni correction. To assess correlations between specific fecal or colonic proteolytic activities and inflammatory parameters, the pairwise comparisons of interest were determined a priori. Spearman’s rank order correlation coefficient was used and the Holm–Bonferroni method was applied to correct for multiplicity.

colonic mucosal damage = assay: Macroscopic score of mucosal damage; type: in vivo, Sprague–Dawley rats; details: for Macroscopy, Day of VMR: score 0–10, mean ± SEM, n = 8
Method: After VMR and compliance measurements, the rat was sacrificed by exsanguination under pentobarbital anesthesia (45 mg/kg, i.p.). The colon was excised, rinsed with Krebs solution, opened along the mesenteric border, and evaluated visually for the presence of mucosal damage using a previously validated scoring system (total score 0–10, Supplementary Table S2).

tryptase = tested on: tryptase; set-up: method as in PMID 29911328; details: in vitro; cited from earlier work
chronic colitis = tested on: chronic colitis; set-up: method as in doi:10.1016/S0016-5085(16)33277-2; details: murine CD4+CD25−CD62L+ T-cell transfer model for chronic colitis; cited from earlier work

Chain of pancreatic elastase (Q9UNI1 19-258): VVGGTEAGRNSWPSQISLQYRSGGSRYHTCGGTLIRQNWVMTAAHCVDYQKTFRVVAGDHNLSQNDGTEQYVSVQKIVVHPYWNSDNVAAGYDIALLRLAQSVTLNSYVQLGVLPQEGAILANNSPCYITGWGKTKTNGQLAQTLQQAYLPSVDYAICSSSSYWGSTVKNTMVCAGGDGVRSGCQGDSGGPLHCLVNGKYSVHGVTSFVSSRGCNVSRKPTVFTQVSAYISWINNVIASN

With CC(=O)Nc1ccc(OP(=O)(Oc2ccc(NC(C)=O)cc2)C(Cc2ccc(N=C(N)N)cc2)NC(=O)OCc2ccccc2)cc1.Cl (stereo not drawn) [UAMC-00050] the IC50 (pancreatic elastase) was > 10 µM, the k12 ([1]; distribution to the peripheral compartment) was 0.028 min⁻¹ and the k21 ([1]; redistribution from peripheral to central compartment) was 0.014 min⁻¹. The A ([1]; two-compartment model) was 500.7 ng/mL, the “AUC 0-inf” value ([1]; two-compartment model) was 5915 ng·min/mL and the “AUC 0-t” value ([1]; two-compartment model) was 5422 ng·min/mL. The AUMC ([1]; two-compartment model) was 200,489 ng/mL*min2, the Alpha ([1]; two-compartment model) was 0.119 min⁻¹ and the B ([1]; two-compartment model) was 17.9 ng/mL. For the same molecule, the Beta ([1]; two-compartment model) was 0.010 min⁻¹, the C0 ([1]; two-compartment model) was 518.7 ng/mL and the CL ([1]; two-compartment model) was 0.0005072 (mg)/(ng/mL)/min. The CL2 ([1]; two-compartment model) was 0.0001621 (mg)/(ng/mL)/min, the MRT ([1]; two-compartment model) was 33.9 min and the V ([1]; two-compartment model) was 0.006 (mg)/(ng/mL). For the same molecule, the V2 ([1]; two-compartment model) was 0.011 (mg)/(ng/mL), the Vss ([1]; two-compartment model) was 0.017 mg/(ng/mL) and the k10 ([1]; two-compartment model) was 0.087 min⁻¹. For the same molecule, the k12 ([1]; two-compartment model) was 0.028 min⁻¹, the k21 ([1]; two-compartment model) was 0.014 min⁻¹ and the t1/2Beta ([1]; two-compartment model) was 66.5 min. The t1/2Alpha ([1]; two-compartment model, 1 mg/kg) was 5.800 min and 5.8 min, the “Macroscopy, Day of VMR” value (colonic mucosal damage; control rats, 5.0 mg/kg intracolonic) was 0.0 ± 0.0 and the “Macroscopy, Day of VMR” value (colonic mucosal damage; post-colitis rats, 0.1 mg/kg intracolonic) was 0.0 ± 0.0. For the same molecule, the “Macroscopy, Day of VMR” value (colonic mucosal damage; post-colitis rats, 1.0 mg/kg intracolonic) was 0.0 ± 0.0, the “Macroscopy, Day of VMR” value (colonic mucosal damage; post-colitis rats, 2.5 mg/kg intracolonic) was 0.0 ± 0.0 and the “Macroscopy, Day of VMR” value (colonic mucosal damage; post-colitis rats, 5.0 mg/kg intracolonic) was 0.0 ± 0.0. For the same molecule, the “Effect on macroscopic evaluation of mucosal damage” value (colonic mucosal damage; single intracolonic administration, control and post-colitis rats) was “no effect”, the inhibition of tryptase (tryptase) was “efficiently inhibits” and the Effect on inflammation (chronic colitis) was “anti-inflammatory effects”.
